Data reported in ChEMBL document CHEMBL1132789, “Synthesis and estrogen receptor binding affinities of novel pyrrolo[2,1,5-cd]indolizine derivatives” (Bioorg Med Chem Lett, 2000).

molecular target: Estrogen receptor (Homo sapiens, UniProt Q92731+P03372)
Description: Inhibitory activity against Estrogen receptor by displacement of [3H]17-beta-estradiol in ER-rich cytosol from rabbit uterine tissue

Structure (SMILES)	IC50 [nM]
CCc1c(-c2ccccc2)c2ccc3c(O)ccc1n32	180
Cc1c(-c2ccc(O)cc2)c2ccc3cccc1n32	28
Oc1ccc(C2=c3ccc4n3C(C=CC=4)C2CCc2ccccc2)cc1 (stereo unspecified)	180
CCc1c(-c2ccccc2)c2ccc3cc(O)cc1n32	1300
CCCc1c(-c2ccc(O)cc2)c2ccc3cccc1n32	5
CC(C)c1c(-c2ccc(O)cc2)c2ccc3cccc1n32	8
CCc1c(-c2ccc(O)cc2)c2ccc3ccc(CO)c1n32	12
CCc1c(-c2ccc(O)cc2)c2ccc3cccc1n32	9.5
CCc1c(-c2ccc(O)cc2)c2ccc3cc(O)cc1n32	0.9
CCCC(C)C1C(c2ccc(O)cc2)=c2ccc3n2C1C=CC=3 (stereo unspecified)	950
CCCCC1C(c2ccc(O)cc2)=c2ccc3n2C1C=CC=3 (stereo unspecified)	200
CCc1c(-c2ccc(O)cc2)c2ccc3c(O)ccc1n32	0.9
CCc1c(-c2cccc(O)c2)c2ccc3cccc1n32	370
Oc1ccc(C2=c3ccc4n3C3C(=CC=4)CCCC23)cc1 (stereo unspecified)	30
Oc1ccc(C2=c3ccc4n3C3C(=CC=4)CCCCC23)cc1 (stereo unspecified)	25
Oc1ccc(-c2cc3cccc4ccc2n43)cc1	700
